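Assay format: 96-well plates, 48-hour exposure. Abbreviation: GI50, concentration required for 50% inhibition of growth.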 The source made the active and inactive calls. Cut-off read from the data, not from the text of the source: active = GI50 up to about 1.1 µM and inactive = higher.
Key:
Experiment in all cases: NCI-60 cell line screen, 48 h
SNB-19 = test system: SNB-19
HOP-18 = test system: HOP-18
HT-29 = test system: HT-29
A549 = test system: A549
RXF 631 = test system: RXF 631
SN12C = test system: SN12C
NCI-H226 = test system: NCI-H226
HCT-116 = test system: HCT-116
HOP-92 = test system: HOP-92
EKVX = test system: EKVX
ACHN = test system: ACHN
OVCAR-4 = test system: OVCAR-4
SR = test system: SR
A498 = test system: A498
KM-20L2 = test system: KM-20L2
M14 = test system: M14
RPMI-8226 = test system: RPMI-8226
SW-620 = test system: SW-620
SK-MEL-2 = test system: SK-MEL-2
CAKI-1 = test system: CAKI-1
SK-MEL-5 = test system: SK-MEL-5
Malme-3M = test system: Malme-3M
RXF 393 = test system: RXF 393
UACC-62 = test system: UACC-62
HCC 2998 = test system: HCC 2998
UO-31 = test system: UO-31
SK-MEL-28 = test system: SK-MEL-28
XF498 = test system: XF498
786-0 = test system: 786-0
SF-268 = test system: SF-268
TK-10 = test system: TK-10
DMS-273 = test system: DMS-273
HCT-15 = test system: HCT-15
SNB-75 = test system: SNB-75
MOLT-4 = test system: MOLT-4
COLO 205 = test system: COLO 205
SNB-78 = test system: SNB-78
UACC-257 = test system: UACC-257
U-251 = test system: U-251
IGROV-1 = test system: IGROV-1
K562 = test system: K562
OVCAR-8 = test system: OVCAR-8
M19-MEL = test system: M19-MEL
SF-539 = test system: SF-539
NCI-H460 = test system: NCI-H460
NCI-H23 = test system: NCI-H23
OVCAR-5 = test system: OVCAR-5
SF-295 = test system: SF-295
CCRF-CEM = test system: CCRF-CEM
HOP-62 = test system: HOP-62
LOX IMVI = test system: LOX IMVI
OVCAR-3 = test system: OVCAR-3
DMS-114 = test system: DMS-114
KM12 = test system: KM12
DLD-1 = test system: DLD-1
LXFL 529 = test system: LXFL 529
HL-60 = test system: HL-60
NCI-H522 = test system: NCI-H522

SMILES: Cc1c(C(=O)C/C(=N/NC(=O)C[N+](C)(C)C)C(=O)Nc2ccc(Cl)cc2)[n+]([O-])c2ccccc2[n+]1[O-]
- GI50 (SNB-19): > 100 µM (inactive)
- GI50 (HOP-18): > 100 µM (inactive)
- GI50 (HT-29): > 100 µM (inactive)
- GI50 (A549): > 100 µM (inactive)
- GI50 (RXF 631): > 100 µM (inactive)
- GI50 (SN12C): > 100 µM (inactive)
- GI50 (NCI-H226): > 100 µM (inactive)
- GI50 (HCT-116): > 100 µM (inactive)
- GI50 (HOP-92): > 100 µM (inactive)
- GI50 (EKVX): > 100 µM (inactive)
- GI50 (ACHN): > 100 µM (inactive)
- GI50 (OVCAR-4): > 100 µM (inactive)
- GI50 (SR): > 100 µM (inactive)
- GI50 (A498): > 100 µM (inactive)
- GI50 (KM-20L2): > 100 µM (inactive)
- GI50 (M14): > 100 µM (inactive)
- GI50 (RPMI-8226): > 100 µM (inactive)
- GI50 (SW-620): > 100 µM (inactive)
- GI50 (SK-MEL-2): > 100 µM (inactive)
- GI50 (CAKI-1): > 100 µM (inactive)
- GI50 (SK-MEL-5): > 100 µM (inactive)
- GI50 (Malme-3M): > 100 µM (inactive)
- GI50 (RXF 393): > 100 µM (inactive)
- GI50 (UACC-62): > 100 µM (inactive)
- GI50 (HCC 2998): > 100 µM (inactive)
- GI50 (UO-31): > 100 µM (inactive)
- GI50 (SK-MEL-28): > 100 µM (inactive)
- GI50 (XF498): > 100 µM (inactive)
- GI50 (786-0): > 100 µM (inactive)
- GI50 (SF-268): > 100 µM (inactive)
- GI50 (TK-10): > 100 µM (inactive)
- GI50 (DMS-273): > 100 µM (inactive)
- GI50 (HCT-15): > 100 µM
- GI50 (SNB-75): > 100 µM (inactive)
- GI50 (MOLT-4): > 100 µM (inactive)
- GI50 (COLO 205): > 100 µM (inactive)
- GI50 (SNB-78): > 100 µM (inactive)
- GI50 (UACC-257): > 100 µM (inactive)
- GI50 (U-251): > 100 µM (inactive)
- GI50 (IGROV-1): > 100 µM (inactive)
- GI50 (K562): > 100 µM (inactive)
- GI50 (OVCAR-8): > 100 µM (inactive)
- GI50 (M19-MEL): > 100 µM (inactive)
- GI50 (SF-539): > 100 µM (inactive)
- GI50 (NCI-H460): > 100 µM (inactive)
- GI50 (NCI-H23): > 100 µM (inactive)
- GI50 (OVCAR-5): > 100 µM (inactive)
- GI50 (SF-295): > 100 µM (inactive)
- GI50 (CCRF-CEM): > 100 µM (inactive)
- GI50 (HOP-62): > 100 µM (inactive)
- GI50 (LOX IMVI): > 100 µM (inactive)
- GI50 (OVCAR-3): > 100 µM (inactive)
- GI50 (DMS-114): > 100 µM (inactive)
- GI50 (KM12): > 100 µM (inactive)
- GI50 (DLD-1): > 100 µM (inactive)
- GI50 (LXFL 529): > 100 µM (inactive)
- GI50 (HL-60): > 100 µM (inactive)
- GI50 (NCI-H522): > 100 µM (inactive)

From ChEMBL document CHEMBL1201862, “PubChem BioAssay data set” (2004)
